Columns and labels:
CYP2C9 = CYP2C9 (Homo sapiens, UniProt P11712); experiment: CYP2C9-catalyzed diclofenac 4′-hydroxylation in human liver microsomes (IC50 and time-dependent inhibition); assay type: in vitro ADME; set-up: from tissue; host or cells: ultrapooled human liver microsomes
Description: (§1) The inhibitory potential (IC50 values) of EAM-2201 on CYP1A2, CYP2A6, CYP2C8, CYP2C9, CYP2C19, CYP2D6 and CYP3A4 were evaluated using ultrapooled human liver microsomes and a cocktail of seven CYP substrates followed by LC-tandem mass spectrometry (LC-MS/MS) as previously described. Each incubation mixture was prepared in a total volume of 100 µL as follows: pooled human liver microsomes (5.2 pmol CYP), 1.0 mM NADPH, 10 mM magnesium chloride, 50 mM potassium phosphate buffer (pH 7.4), various concentrations of EAM-2201 in DMSO (final concentrations of 0.1–50 µM, 0.5% DMSO) and a cocktail of seven CYP probe substrates in 50% acetonitrile (0.5% acetonitrile), including 50 µM phenacetin, 2.5 µM coumarin, 2.0 µM amodiaquine, 10 µM diclofenac, 100 µM [S]-mephenytoin, 5 µM bufuralol and 2.5 µM midazolam in 50% acetonitrile. After a 3-min preincubation at 37 °C, the reactions were initiated by adding NADPH and incubation proceeded for 15 min at 37 °C in a shaking water bath. The reactions were stopped by adding 100 µL of ice-cold methanol containing internal standards (^13C2,^15N-acetaminophen for acetaminophen and N-desethylamodiaquine; d9-1′-hydroxybufuralol for 4′-hydroxydiclofenac, 7-hydroxycoumarin, 4′-hydroxymephenytoin, 1′-hydroxybufuralol and 1′-hydroxy-midazolam). The incubation mixtures were centrifuged at 13,000× g for 4 min at 4 °C and 50 µL of each supernatant was diluted in 50 µL of water. Aliquots (5 µL) of the diluted supernatants were analyzed using LC-MS/MS. All assays were performed in triplicate and the mean values were used in calculations. […] Each reaction was initiated by adding the seven-CYP probe substrate cocktail described above.
(§2) The time-dependent inhibitory effects of EAM-2201 on CYP2C8, CYP2C9, CYP2C19 and CYP3A4 activities in ultrapooled human liver microsomes were evaluated using time- and concentration-dependent inhibition assays. Ultrapooled human liver microsomes (26.0 pmol CYP) were pre-incubated with various concentrations of EAM-2201 in DMSO (0.5% DMSO) in 50 mM potassium phosphate buffer (pH 7.4) in the presence of NADPH for predetermined time periods: 5–15 min for CYP2C8 activity, 5–20 min for CYP2C9 activity and 15–40 min for CYP2C19 and CYP3A4 activities. […] Aliquots (5 µL) of the diluted supernatants were analyzed using LC-MS/MS.
(§3) The metabolites formed from CYP substrates were simultaneously quantified using our previously described LC-MS/MS method. […]

CYP2C19 = CYP2C19 (Homo sapiens, UniProt P33261); experiment: CYP2C19-mediated [S]-mephenytoin 4′-hydroxylation in human liver microsomes (IC50 and time-dependent inhibition); assay type: in vitro ADME; set-up: from tissue; host or cells: ultrapooled human liver microsomes
Chain of CYP2C19 (P33261 whole entry): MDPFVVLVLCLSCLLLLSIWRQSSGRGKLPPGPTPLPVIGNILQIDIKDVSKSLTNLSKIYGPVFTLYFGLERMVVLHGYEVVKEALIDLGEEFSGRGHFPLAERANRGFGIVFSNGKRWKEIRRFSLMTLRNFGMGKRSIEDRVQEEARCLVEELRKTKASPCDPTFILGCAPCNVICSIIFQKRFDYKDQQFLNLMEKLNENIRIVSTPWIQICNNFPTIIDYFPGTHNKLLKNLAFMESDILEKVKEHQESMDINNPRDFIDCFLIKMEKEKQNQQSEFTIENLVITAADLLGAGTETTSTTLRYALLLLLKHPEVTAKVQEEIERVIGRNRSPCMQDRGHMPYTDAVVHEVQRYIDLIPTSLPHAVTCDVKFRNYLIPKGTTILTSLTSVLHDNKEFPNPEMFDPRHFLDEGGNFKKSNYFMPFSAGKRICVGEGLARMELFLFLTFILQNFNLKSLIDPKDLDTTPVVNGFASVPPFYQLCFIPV
Description: as §1, §2, §3

[1] = up to 50 µM, without 30-min preincubation, human liver microsomes

Chain of CYP2C9 (P11712 whole entry): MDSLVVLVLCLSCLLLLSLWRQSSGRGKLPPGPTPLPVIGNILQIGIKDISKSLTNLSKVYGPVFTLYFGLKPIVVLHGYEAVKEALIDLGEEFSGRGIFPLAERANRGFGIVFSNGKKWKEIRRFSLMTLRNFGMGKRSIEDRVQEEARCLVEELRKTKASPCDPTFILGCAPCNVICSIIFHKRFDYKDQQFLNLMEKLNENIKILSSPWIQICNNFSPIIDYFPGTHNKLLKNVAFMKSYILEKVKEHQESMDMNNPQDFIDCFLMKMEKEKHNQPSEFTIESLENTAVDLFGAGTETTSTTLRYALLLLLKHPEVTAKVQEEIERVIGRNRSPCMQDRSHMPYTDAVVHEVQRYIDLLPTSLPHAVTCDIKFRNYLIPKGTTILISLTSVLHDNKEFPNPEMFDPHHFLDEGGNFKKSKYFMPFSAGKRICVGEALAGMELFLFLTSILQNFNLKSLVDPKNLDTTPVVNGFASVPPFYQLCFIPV

## CCc1ccc(C(=O)c2cn(CCCCCF)c3ccccc23)c2ccccc12 [EAM-2201, (4-ethyl-1-naphthalenyl)[1-(5-fluoropentyl)-1H-indol-3-yl]-methanone]
CYP2C9
  IC50: 6.7 µM
CYP2C9; human liver microsomes
  inactivation efficiency (kinact/Ki), CYP2C9: 257 M⁻¹ s⁻¹
CYP2C9; human, ultrapooled human liver microsomes, pH 7.4, probe diclofenac (10 µM), 4′-hydroxylation, read-out: kinact, time-dependent inhibition of CYP2C9 diclofenac 4′-hydroxylase (converted)
  kinact: 0.00077 s⁻¹
CYP2C9; [1]
  inhibition of CYP2C9-catalyzed diclofenac 4′-hydroxylation: negligibly inhibited
CYP2C19
  IC50: 10.9 µM
CYP2C19; human liver microsomes
  inactivation efficiency (kinact/Ki), CYP2C19: 115 M⁻¹ s⁻¹
CYP2C19; human, ultrapooled human liver microsomes, pH 7.4, probe [S]-mephenytoin (100 µM), 4′-hydroxylation, read-out: kinact, time-dependent inhibition of CYP2C19 [S]-mephenytoin 4′-hydroxylase (converted)
  kinact: 0.00044 s⁻¹
CYP2C19; [1]
  inhibition of CYP2C19-mediated [S]-mephenytoin 4′-hydroxylation: negligibly inhibited

Reference: paper PMC6017357, “In Vitro Inhibitory Effects of Synthetic Cannabinoid EAM-2201 on Cytochrome P450 and UDP-Glucuronosyltransferase Enzyme Activities in Human Liver Microsomes” (Molecules : A Journal of Synthetic Chemistry and Natural …, 2018)
